Source: US20260191874A1, “FUSED AMINO PYRIMIDINE COMPOUNDS FOR TREATMENT OF AUTISM SPECTRUM DISORDER, OBSESSIVE COMPULSIVE DISORDER AND TICS” (Ovid Therapeutics Inc., priority 2024, published 2026)

What was measured:
[1] = target: T1, KCC2-S940A (Homo sapiens, UniProt Q9H2X9, S963A); assay: Tl+ flux assay in HEK-293 cells expressing KCC2-S940A; format: cell-based
T1 construct: expressed in transfected cells; host or cells: HEK-293
T1 sequence (Q9H2X9 1-1116 isoform Q9H2X9-2 S940A): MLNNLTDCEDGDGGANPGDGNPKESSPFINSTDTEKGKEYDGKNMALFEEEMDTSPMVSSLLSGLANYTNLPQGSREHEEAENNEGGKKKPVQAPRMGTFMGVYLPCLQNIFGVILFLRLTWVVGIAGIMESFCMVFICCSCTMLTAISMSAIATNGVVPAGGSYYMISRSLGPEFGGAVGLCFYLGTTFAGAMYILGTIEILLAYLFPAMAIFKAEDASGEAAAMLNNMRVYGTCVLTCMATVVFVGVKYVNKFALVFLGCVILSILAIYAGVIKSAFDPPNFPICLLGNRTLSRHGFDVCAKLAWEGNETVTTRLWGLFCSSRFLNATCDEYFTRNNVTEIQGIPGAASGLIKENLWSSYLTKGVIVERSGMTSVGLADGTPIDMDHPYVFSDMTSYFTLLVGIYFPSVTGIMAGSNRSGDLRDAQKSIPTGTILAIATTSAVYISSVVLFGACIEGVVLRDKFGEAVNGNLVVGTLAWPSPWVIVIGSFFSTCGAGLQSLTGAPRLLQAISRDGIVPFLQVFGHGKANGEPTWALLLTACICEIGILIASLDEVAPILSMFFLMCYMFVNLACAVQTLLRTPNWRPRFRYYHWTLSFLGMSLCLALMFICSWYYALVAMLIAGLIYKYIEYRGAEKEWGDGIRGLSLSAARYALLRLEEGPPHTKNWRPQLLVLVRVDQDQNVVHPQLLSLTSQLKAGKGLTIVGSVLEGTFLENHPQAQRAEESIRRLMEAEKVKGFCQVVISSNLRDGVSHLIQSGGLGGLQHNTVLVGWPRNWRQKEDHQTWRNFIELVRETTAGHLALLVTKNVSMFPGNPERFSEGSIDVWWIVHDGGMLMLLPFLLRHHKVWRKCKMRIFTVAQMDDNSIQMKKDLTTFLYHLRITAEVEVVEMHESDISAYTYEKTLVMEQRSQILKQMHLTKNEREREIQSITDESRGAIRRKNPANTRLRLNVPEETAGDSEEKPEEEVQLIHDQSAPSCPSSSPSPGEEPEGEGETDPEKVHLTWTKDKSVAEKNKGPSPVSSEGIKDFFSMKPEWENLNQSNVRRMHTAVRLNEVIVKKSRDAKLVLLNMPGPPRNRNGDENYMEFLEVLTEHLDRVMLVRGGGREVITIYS
Experimental: (§1) FLIPR TI Flux assay. HEK-293 cells were washed with HBSS, and then incubated with loading buffer containing TI sensitive fluorescent dye (https://www.moleculardevices.com), 20 μM bumetanide 20 μM ouabain and 2.5 mM probenecid for 1 h at room temperature (RT) under control conditions or with drugs in the dark using a FlexStation 3 microplate reader (Molecular Devices) and imaged […] for 30 min. Stimulus buffer was added containing 5 mM K^+/0.5 mM Tl^+ and cells were imaged every 1.5 over a 190 second time course The initial rate Tl^+ uptake (Relative Fluorescence Units (RFU) per second) was determined following addition of the stimulus buffer as outlined previously (Conway et al., 2017, supra) (Lee et al., 2022, supra).
(§2) Several studies have shown that the activity and plasma membrane accumulation of KCC2 is potentiated via phosphorylation of S940, a process mediated by the activity of protein kinase C and protein phosphatase 1 (Lee et al., 2011, supra; Lee et al., J Biol Chem 282, 29777-29784 (2007); Moore et al., Proc. Natl. Acad. Sci. U.S.A 115, 10166-10171 (2018); Moore et al., Trends Neurosci. 40, 555-571 (2017); Silayeva et al., Proc. Natl. Acad. Sci. U.S.A 112, 3523-3528 (2015)). […] Compared to KCC2, effects on KCC3, KCC4, and NKCC1 were only seen at concentrations more than 35-fold that of KCC2 (≥100 μM) (FIG. 1G).

[2] = target: T2, NKCC1 (Homo sapiens, UniProt P55011); assay: Tl+ flux assay in HEK-293 cells expressing NKCC1; format: cell-based; settings: read-out: concentration at which effects on NKCC1 were seen (EC50 chart, FIG. 1G)
T2 construct: expressed in transfected cells; host or cells: HEK-293
T2 sequence (P55011 1-1212): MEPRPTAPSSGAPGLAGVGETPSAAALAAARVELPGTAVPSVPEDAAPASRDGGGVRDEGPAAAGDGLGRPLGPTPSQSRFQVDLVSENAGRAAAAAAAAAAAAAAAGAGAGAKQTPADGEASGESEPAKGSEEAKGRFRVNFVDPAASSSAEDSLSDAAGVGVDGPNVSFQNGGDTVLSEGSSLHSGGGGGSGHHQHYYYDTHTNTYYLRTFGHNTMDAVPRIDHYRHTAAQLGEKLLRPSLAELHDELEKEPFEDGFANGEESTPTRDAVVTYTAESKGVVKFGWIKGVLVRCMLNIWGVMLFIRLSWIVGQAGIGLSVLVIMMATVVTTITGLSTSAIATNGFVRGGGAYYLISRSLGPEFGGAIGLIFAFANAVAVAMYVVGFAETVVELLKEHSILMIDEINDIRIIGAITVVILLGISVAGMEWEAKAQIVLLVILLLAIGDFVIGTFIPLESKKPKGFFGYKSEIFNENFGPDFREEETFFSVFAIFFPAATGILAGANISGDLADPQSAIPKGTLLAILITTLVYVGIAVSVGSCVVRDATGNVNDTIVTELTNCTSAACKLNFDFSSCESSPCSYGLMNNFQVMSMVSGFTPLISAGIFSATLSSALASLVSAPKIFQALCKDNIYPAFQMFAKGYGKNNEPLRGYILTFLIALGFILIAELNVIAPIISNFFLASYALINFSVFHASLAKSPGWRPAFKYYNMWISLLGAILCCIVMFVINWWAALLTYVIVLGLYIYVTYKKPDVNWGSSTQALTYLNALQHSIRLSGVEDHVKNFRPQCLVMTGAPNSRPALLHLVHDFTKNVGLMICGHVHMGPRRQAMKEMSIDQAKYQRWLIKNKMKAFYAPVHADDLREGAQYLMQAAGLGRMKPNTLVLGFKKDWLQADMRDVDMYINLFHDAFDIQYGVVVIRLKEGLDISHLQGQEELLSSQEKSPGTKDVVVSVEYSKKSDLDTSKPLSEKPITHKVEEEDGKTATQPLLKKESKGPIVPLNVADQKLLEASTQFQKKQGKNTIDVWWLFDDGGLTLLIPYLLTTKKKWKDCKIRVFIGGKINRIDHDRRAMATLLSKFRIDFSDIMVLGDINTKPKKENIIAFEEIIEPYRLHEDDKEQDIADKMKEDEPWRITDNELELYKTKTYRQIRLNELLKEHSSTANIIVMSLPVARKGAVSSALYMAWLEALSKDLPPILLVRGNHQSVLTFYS
Experimental: as §1, §2

[3] = system: hippocampus; assay: Neuronal cell death in the hippocampus of mice treated with diazepam; format: in vivo; settings: Compound A and diazepam, compared to diazepam alone

Compound: C[C@@H]1CN(c2nc3c(c(Nc4ccc(C5CCCCC5)cc4)n2)COC3)CCO1 [Compound A, (R)—N-(4-cyclohexylphenyl)-2-(2-methylmorpholino)-5,7-dihydrofuro[3,4-d]pyrimidin-4-amine]
- activity of KCC2-S940A construct [1]: increased the activity
- EC50 [2]: ≥ 100 µM
- neuronal cell death in the hippocampus [3]: significantly reduced
